Read-outs that look alike come from different tables or passages of the source.
What was measured:
His6-TEV-PPARγ-(234-505) = biological target: T1, His6-TEV-PPARγ-(234-505) (Homo sapiens, UniProt P37231); assay: TR-FRET Assay to Measure Co-R Peptide Recruitment to PPARγ; assay type: biochemical; details: Co-R peptide (SMRT-ID2) recruitment; top final concentration 20 μM; read-out: TR-FRET i-Ag; AC50
T1 construct: The His6-TEV-PPARγ-(234-505) protein for assay was expressed and purified; TEV cleavage site (N); made in house
T1 sequence (P37231 234-505): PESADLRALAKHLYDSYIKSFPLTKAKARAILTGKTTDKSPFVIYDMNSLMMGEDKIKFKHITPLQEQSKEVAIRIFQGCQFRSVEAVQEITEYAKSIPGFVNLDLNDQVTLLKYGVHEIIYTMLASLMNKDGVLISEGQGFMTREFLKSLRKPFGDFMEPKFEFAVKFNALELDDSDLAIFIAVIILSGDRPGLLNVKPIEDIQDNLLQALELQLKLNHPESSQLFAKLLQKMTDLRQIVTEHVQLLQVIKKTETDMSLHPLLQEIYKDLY
Procedure, shortened: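 His-tagged PPARγ (or controls) was preincubated with compound for 20 minutes at room temperature, then 5 nM anti-His terbium antibody and 200 nM FITC-labeled SMRT-ID2 corepressor peptide (final) were added for a further hour. TR-FRET signal was normalized to percent response using 500 nM T0070907 and DMSO controls.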

UM-UC-9 engineered cells = assay: Cell proliferation / short-term viability assay, CellTiter-Glo 144 h; assay type: cell-based, human; details: read-out: CTGlo 144 h UMUC9.5, G150
Procedure, shortened: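 UM-UC-9 engineered assay-ready cells seeded at 500 cells/well in high-glucose DMEM/10% FBS, treated from dose-response plates, grown at 37° C, 5% CO2. CellTiter-Glo 2.0 luminescence read on day 7, with a day-0 pretreatment plate as T0 reference and DMSO wells as negative control.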

| Compound | AC50 (His6-TEV-PPARγ-(234-505)) [nM] | IC50 (UM-UC-9 engineered cells; Homo sapiens, UM-UC-9, 144 h) [nM] | IC50 (UM-UC-9 engineered cells) [nM] |
| --- | --- | --- | --- |
| CO[C@]1(C(F)(F)F)CC[C@H](NC(=O)[C@H]2CCN(C(=O)c3cc(-c4cc(C)ncn4)[nH]n3)C3(CC3)C2)CC1 (single isomer, unassigned) [Example 309-B] | 49.5 | 302 | – |
| CO[C@]1(C(F)(F)F)CC[C@@H](NC(=O)[C@@H]2CCN(C(=O)c3cc(-c4cc(C)ncn4)[nH]n3)C3(CC3)C2)CC1 (single isomer, unassigned) [Example 309-C] | 720 | 6200 | – |
| CO[C@]1(C(F)(F)F)CC[C@H](NC(=O)[C@@H]2CCN(C(=O)c3cc(-c4cc(C)ncn4)[nH]n3)C3(CC3)C2)CC1 (single isomer, unassigned) [Example 309-D] | 1320 | 3680 | – |
| CCO[C@]1(C(F)(F)F)CC[C@@H](NC(=O)[C@@H]2CCN(C(=O)c3cc(-c4cc(OC)ncc4F)[nH]n3)C3(CC3)C2)CC1 (single isomer, unassigned) [Example 312-A] | 172 | 493 | – |
| CCO[C@]1(C(F)(F)F)CC[C@@H](NC(=O)[C@H]2CCN(C(=O)c3cc(-c4cc(OC)ncc4F)[nH]n3)C3(CC3)C2)CC1 (single isomer, unassigned) [Example 312-B] | 2.5 | 1.8 | – |
| COc1cc(-c2cc(C(=O)N3CC[C@@H](C(=O)NCC45CCC(O)(CC4)CC5)CC34CC4)n[nH]2)c(F)cn1 (single isomer, unassigned) [Example 313-A] | 1290 | 3890 | – |
| COc1cc(-c2cc(C(=O)N3CC[C@H](C(=O)NCC45CCC(O)(CC4)CC5)CC34CC4)n[nH]2)c(F)cn1 (single isomer, unassigned) [Example 313-B] | 3.5 | 13.9 | – |
| COc1cc(-c2cc(C(=O)N3CCC(C(=O)NCC45CCC(O)(CC4)C5)CC34CC4)n[nH]2)c(F)cn1 (single isomer, unassigned) [Example 333-A] | 1960 | – | 9440 |
| COc1cc(-c2cc(C(=O)N3CCC(C(=O)NCC45CCC(O)(CC4)C5)CC34CC4)n[nH]2)c(F)cn1 (single isomer, unassigned) [Example 333-B] | 6.7 | – | 33.2 |
| COc1cc(-c2cc(C(=O)N3CCC(C(=O)NC4CCC(O)(C(F)(F)F)CC4)CC34CC4)n[nH]2)ncn1 (single isomer, unassigned) [Example 338-A] | 9.3 | – | 16.2 |
| COc1cc(-c2cc(C(=O)N3CCC(C(=O)NC4CCC(O)(C(F)(F)F)CC4)CC34CC4)n[nH]2)ncn1 (single isomer, unassigned) [Example 338-B] | 723 | – | 1320 |
| Cc1cc(-c2cc(C(=O)N3CCC(C(=O)NC4CCC(O)(C(F)(F)F)CC4)CC34CC4)n[nH]2)ncn1 (single isomer, unassigned) [Example 339-A] | 476 | – | 3800 |
| Cc1cc(-c2cc(C(=O)N3CCC(C(=O)NC4CCC(O)(C(F)(F)F)CC4)CC34CC4)n[nH]2)ncn1 (single isomer, unassigned) [Example 339-B] | 6.9 | – | 19.5 |
| COc1cc(-c2cc(C(=O)N3CCC(C(=O)NC4CCC(OCC(C)OC)(C(F)(F)F)CC4)CC34CC4)n[nH]2)c(F)cn1 (single isomer, unassigned) [Example 340-A] | 6.5 | – | 4.4 |
| COc1cc(-c2cc(C(=O)N3CCC(C(=O)NC4CCC(OCC(C)OC)(C(F)(F)F)CC4)CC34CC4)n[nH]2)c(F)cn1 (single isomer, unassigned) [Example 340-B] | 19 | – | 10.7 |
| COc1cc(-c2cc(C(=O)N3CCC(C(=O)NCC4CCc5[nH]ncc5C4)CC34CC4)n[nH]2)c(F)cn1 (single isomer, unassigned) [Example 341-A] | 6.1 | – | 6.6 |
| COc1cc(-c2cc(C(=O)N3CCC(C(=O)NCC4CCc5[nH]ncc5C4)CC34CC4)n[nH]2)c(F)cn1 (single isomer, unassigned) [Example 341-B] | 8.1 | – | 12.2 |
| COc1cc(-c2cc(C(=O)N3CCC(C(=O)NCC4CCn5cncc5C4)CC34CC4)n[nH]2)c(F)cn1 (single isomer, unassigned) [Example 342-A] | 50.8 | – | 1210 |
| COc1cc(-c2cc(C(=O)N3CCC(C(=O)NCC4CCn5cncc5C4)CC34CC4)n[nH]2)c(F)cn1 (single isomer, unassigned) [Example 342-B] | 42.8 | – | 682 |
| COc1cc(-c2cc(C(=O)N3CCC(C(=O)NCC4CCn5c(C)nnc5C4)CC34CC4)n[nH]2)c(F)cn1 (single isomer, unassigned) [Example 346-A] | 504 | – | 2790 |

| Compound | AC50 (His6-TEV-PPARγ-(234-505)) [nM] | IC50 (UM-UC-9 engineered cells; Homo sapiens, UM-UC-9, 144 h) [nM] | IC50 (UM-UC-9 engineered cells) [nM] |
| --- | --- | --- | --- |
| COc1cc(-c2cc(C(=O)N3CCC(C(=O)NCC4CCn5c(C)nnc5C4)CC34CC4)n[nH]2)c(F)cn1 (single isomer, unassigned) [Example 346-B] | 1120 | – | 2410 |
| COc1cc(-c2cc(C(=O)N3CCC(NC(=O)C4CCC(O)(C(F)(F)F)CC4)CC34CC4)n[nH]2)c(F)cn1 (single isomer, unassigned) [Example 347-A] | 81.6 | – | 396 |
| COc1cc(-c2cc(C(=O)N3CCC(NC(=O)C4CCC(O)(C(F)(F)F)CC4)CC34CC4)n[nH]2)c(F)cn1 (single isomer, unassigned) [Example 347-B] | 198 | – | 600 |
| COc1cc(-c2cc(C(=O)N3CCC(NC(=O)C4CCC(O)(C(F)(F)F)CC4)CC34CC4)n[nH]2)c(F)cn1 (single isomer, unassigned) [Example 347-C] | 5080 | – | > 10000 |
| COc1cc(-c2cc(C(=O)N3CCC(NC(=O)C4CCC(O)(C(F)(F)F)CC4)CC34CC4)n[nH]2)c(F)cn1 (single isomer, unassigned) [Example 347-D] | ≥ 20000 | – | > 10000 |
| COc1cc(-c2cc(C(=O)N3CCC(C(=O)NC4CC(N5CCC(F)(F)C5)C4(C)C)CC34CC4)n[nH]2)c(F)cn1 (single isomer, unassigned) [Example 355-A] | 10.4 | – | 3.5 |
| COc1cc(-c2cc(C(=O)N3CCC(C(=O)NC4CC(N5CCC(F)(F)C5)C4(C)C)CC34CC4)n[nH]2)c(F)cn1 (single isomer, unassigned) [Example 355-B] | 9.4 | – | 3.3 |
| COc1cc(-c2cc(C(=O)N3CCC(C(=O)NC4CCC(O)(C(F)(F)F)CC4)CC3C(F)(F)F)n[nH]2)c(F)cn1 (single isomer, unassigned) [Example 367-A] | 56.7 | – | 161 |
| COc1cc(-c2cc(C(=O)N3CCC(C(=O)NC4CCC(O)(C(F)(F)F)CC4)CC3C(F)(F)F)n[nH]2)c(F)cn1 (single isomer, unassigned) [Example 367-B] | 12.7 | – | 6.8 |
| COc1cc(-c2cc(C(=O)N3CC[C@H](C(=O)NC4CCC(O)(C(C)(F)F)CC4)CC34CC4)n[nH]2)c(F)cn1 (single isomer, unassigned) [Example 375-A] | 3.4 | – | 1.3 |
| COc1cc(-c2cc(C(=O)N3CC[C@H](C(=O)NC4CCC5CCCN5C4)CC34CC4)n[nH]2)c(F)cn1 (single isomer, unassigned) [Example 376-A] | 897 | – | 1730 |
| COc1cc(-c2cc(C(=O)N3CC[C@H](C(=O)NC4CCC5CCCN5C4)CC34CC4)n[nH]2)c(F)cn1 (single isomer, unassigned) [Example 376-B] | 1600 | – | 3880 |
| COc1cc(-c2cc(C(=O)N3CC[C@H](C(=O)NC4CCC5CCCN5C4)CC34CC4)n[nH]2)c(F)cn1 (single isomer, unassigned) [Example 376-C] | 19.2 | – | 23.6 |
| COc1cc(-c2cc(C(=O)N3CC[C@H](C(=O)NC4CCC5CCCN5C4)CC34CC4)n[nH]2)c(F)cn1 (single isomer, unassigned) [Example 376-D] | 129 | – | 71.4 |
| COc1cc(-c2cc(C(=O)N3CC[C@H](C(=O)NC(C)c4nnc(C5CC5)o4)CC34CC4)n[nH]2)c(F)cn1 (single isomer, unassigned) [Example 395-B] | 671 | 593 | – |
| COc1cc(-c2cc(C(=O)N3CC[C@H](C(=O)NC4CCC(N)(C(F)(F)F)CC4)CC34CC4)n[nH]2)c(F)cn1 (single isomer, unassigned) [Example 399-A] | 298 | 176 | – |
| COc1cc(-c2cc(C(=O)N3CCC(C(=O)NC4CCC(O)(C(F)(F)F)CC4)CC3(C)C)n[nH]2)c(F)cn1 (single isomer, unassigned) [Example 407-A] | 16 | – | 14 |
| COc1cc(-c2cc(C(=O)N3CCC(C(=O)NC4CCC(O)(C(F)(F)F)CC4)CC3(C)C)n[nH]2)c(F)cn1 (single isomer, unassigned) [Example 407-B] | 1690 | – | 1340 |
| COc1cc(-c2cc(C(=O)N3CC[C@H](C(=O)NC4CCC(CO)(C(F)(F)F)CC4)CC34CC4)n[nH]2)c(F)cn1 (single isomer, unassigned) [Example 408-A] | 4.5 | – | 3.9 |

— US12606541B2, “PPARg modulators and methods of use” (Eisai R&D Management Co., Ltd., priority 2020, dated 2026)
